Species: Rattus norvegicus
Assay: Open TG-GATES - Regimen: Daily Repeat
Format: toxicity, organism-based, Sprague-Dawley
Design: regimen Daily Repeat, gender Male, age 6 weeks
Conditions: in vivo, po, 0 mg/kg, route gavage, dose level Control; for APTT / Bas / Eos / Fbg / Hb / Ht / Lym / MCH / MCHC / MCV / Mono / Neu / PT / Plat / RBC / Ret / WBC: tissue Blood; for KIDNEY_L / KIDNEY_R / KIDNEY_TOTAL: tissue Kidney; for LIVER: tissue Liver; for A/G / ALP / ALT / AST / BUN / CRE / Ca / Cl / DBIL / GLC / IP / K / LDH / Na / PL / RALB / TBIL / TC / TG / TP / gamma-GTP: tissue Plasma

Compound CCc1oc2ccccc2c1C(=O)c1cc(Br)c(O)c(Br)c1 [BENZBROMARONE] has a TERMINAL_BW (72 h, time 3 day) of 230.4 g, an APTT (72 h, time 3 day) of 16.2 s and a Bas (72 h, time 3 day) of 0%. For the same compound, the Eos (72 h, time 3 day) was 1.6%, the Fbg (72 h, time 3 day) was 232 mg/dL and the Hb (72 h, time 3 day) was 14.5 g/dL. The Ht (72 h, time 3 day) was 42.7%, the Lym (72 h, time 3 day) was 73% and the MCH (72 h, time 3 day) was 22.5 pg. The MCHC (72 h, time 3 day) was 34%, the MCV (72 h, time 3 day) was 66.2 fL and the Mono (72 h, time 3 day) was 6.6%. For the same compound, the Neu (72 h, time 3 day) was 18.6%, the PT (72 h, time 3 day) was 11.7 s and the Plat (72 h, time 3 day) was 111.1 x10_4/uL. It also gave an RBC (72 h, time 3 day) of 645.6 x10_4/ul, a Ret (72 h, time 3 day) of 7.2% and a WBC (72 h, time 3 day) of 113.8 x10_2/uL. It also gave a KIDNEY_L (72 h, time 3 day) of 1 g, a KIDNEY_R (72 h, time 3 day) of 1 g and a KIDNEY_TOTAL (72 h, time 3 day) of 2 g. It also gave an LIVER (72 h, time 3 day) of 11.1 g, an A/G (72 h, time 3 day) of 2 and an ALP (72 h, time 3 day) of 921.2 IU/L. The ALT (72 h, time 3 day) was 34.6 IU/L, the AST (72 h, time 3 day) was 62.8 IU/L and the BUN (72 h, time 3 day) was 16.4 mg/dL. It also gave a CRE (72 h, time 3 day) of 0.5 mg/dL, a Ca (72 h, time 3 day) of 9.9 mg/dL and a Cl (72 h, time 3 day) of 106.3 meq/L. It also gave a DBIL (72 h, time 3 day) of 0.008 mg/dL, a GLC (72 h, time 3 day) of 197 mg/dL and an IP (72 h, time 3 day) of 7.5 mg/dL. For the same compound, the K (72 h, time 3 day) was 5.1 meq/L, the LDH (72 h, time 3 day) was 84.6 IU/L and the Na (72 h, time 3 day) was 139.5 meq/L. The PL (72 h, time 3 day) was 156.8 mg/dL, the RALB (72 h, time 3 day) was 3.9 g/dL and the TBIL (72 h, time 3 day) was 0.3 mg/dL. It also gave a TC (72 h, time 3 day) of 82 mg/dL, a TG (72 h, time 3 day) of 106 mg/dL and a TP (72 h, time 3 day) of 5.9 g/dL. It also gave a gamma-GTP (72 h, time 3 day) of 0.6 IU/L, a TERMINAL_BW ([…], time 7 day) of 262.9 g and a TERMINAL_BW ([…], time 14 day) of 315 g. It also gave a TERMINAL_BW ([…], time 28 day) of 382.2 g, an APTT ([…], time 7 day) of 16.8 s and a Bas ([…], time 7 day) of 0%. It also gave an Eos ([…], time 7 day) of 1%, a Fbg ([…], time 7 day) of 236.4 mg/dL and a Hb ([…], time 7 day) of 14.5 g/dL. It also gave a Ht ([…], time 7 day) of 42.7%, a Lym ([…], time 7 day) of 80% and an MCH ([…], time 7 day) of 21.4 pg. For the same compound, the MCHC ([…], time 7 day) was 33.8%, the MCV ([…], time 7 day) was 63.3 fL and the Mono ([…], time 7 day) was 6.6%. For the same compound, the Neu ([…], time 7 day) was 12.4%, the PT ([…], time 7 day) was 11.9 s and the Plat ([…], time 7 day) was 113.2 x10_4/uL. It also gave an RBC ([…], time 7 day) of 675 x10_4/ul, a Ret ([…], time 7 day) of 5.5% and a WBC ([…], time 7 day) of 109.7 x10_2/uL. The APTT ([…], time 14 day) was 16 s, the Bas ([…], time 14 day) was 0% and the Eos ([…], time 14 day) was 1.6%. For the same compound, the Fbg ([…], time 14 day) was 223.8 mg/dL, the Hb ([…], time 14 day) was 14.7 g/dL and the Ht ([…], time 14 day) was 43.8%. The Lym ([…], time 14 day) was 77.4%, the MCH ([…], time 14 day) was 20.9 pg and the MCHC ([…], time 14 day) was 33.6%. It also gave an MCV ([…], time 14 day) of 62.3 fL, a Mono ([…], time 14 day) of 4.4% and a Neu ([…], time 14 day) of 16.8%. It also gave a PT ([…], time 14 day) of 11.8 s, a Plat ([…], time 14 day) of 110.7 x10_4/uL and an RBC ([…], time 14 day) of 703.4 x10_4/ul. For the same compound, the Ret ([…], time 14 day) was 4.7%, the WBC ([…], time 14 day) was 138.1 x10_2/uL and the APTT ([…], time 28 day) was 16.6 s. For the same compound, the Bas ([…], time 28 day) was 0%, the Eos ([…], time 28 day) was 1% and the Fbg ([…], time 28 day) was 230.2 mg/dL. The Hb ([…], time 28 day) was 15.5 g/dL, the Ht ([…], time 28 day) was 46.5% and the Lym ([…], time 28 day) was 83.8%. The MCH ([…], time 28 day) was 18.6 pg, the MCHC ([…], time 28 day) was 33.3% and the MCV ([…], time 28 day) was 55.9 fL. It also gave a Mono ([…], time 28 day) of 3.8%, a Neu ([…], time 28 day) of 11.4% and a PT ([…], time 28 day) of 12 s. For the same compound, the Plat ([…], time 28 day) was 106.6 x10_4/uL, the RBC ([…], time 28 day) was 832 x10_4/ul and the Ret ([…], time 28 day) was 2.6%. For the same compound, the WBC ([…], time 28 day) was 136.5 x10_2/uL, the KIDNEY_L ([…], time 7 day) was 1.1 g and the KIDNEY_R ([…], time 7 day) was 1.2 g. For the same compound, the KIDNEY_TOTAL ([…], time 7 day) was 2.3 g, the KIDNEY_L ([…], time 14 day) was 1.2 g and the KIDNEY_R ([…], time 14 day) was 1.2 g. For the same compound, the KIDNEY_TOTAL ([…], time 14 day) was 2.4 g, the KIDNEY_L ([…], time 28 day) was 1.4 g and the KIDNEY_R ([…], time 28 day) was 1.4 g. It also gave a KIDNEY_TOTAL ([…], time 28 day) of 2.9 g, an LIVER ([…], time 7 day) of 12.8 g and an LIVER ([…], time 14 day) of 13.9 g. The LIVER ([…], time 28 day) was 15.8 g, the A/G ([…], time 7 day) was 1.7 and the ALP ([…], time 7 day) was 777 IU/L. For the same compound, the ALT ([…], time 7 day) was 31.8 IU/L, the AST ([…], time 7 day) was 60.6 IU/L and the BUN ([…], time 7 day) was 20.4 mg/dL. The CRE ([…], time 7 day) was 0.5 mg/dL, the Ca ([…], time 7 day) was 10.3 mg/dL and the Cl ([…], time 7 day) was 106.5 meq/L. For the same compound, the DBIL ([…], time 7 day) was 0.02 mg/dL, the GLC ([…], time 7 day) was 197.2 mg/dL and the IP ([…], time 7 day) was 7.1 mg/dL. It also gave a K ([…], time 7 day) of 5.1 meq/L, an LDH ([…], time 7 day) of 102.2 IU/L and a Na ([…], time 7 day) of 138.3 meq/L. For the same compound, the PL ([…], time 7 day) was 157.8 mg/dL, the RALB ([…], time 7 day) was 3.9 g/dL and the TBIL ([…], time 7 day) was 0.3 mg/dL. For the same compound, the TC ([…], time 7 day) was 74.4 mg/dL, the TG ([…], time 7 day) was 136.4 mg/dL and the TP ([…], time 7 day) was 6.1 g/dL. For the same compound, the gamma-GTP ([…], time 7 day) was 1 IU/L, the A/G ([…], time 14 day) was 1.8 and the ALP ([…], time 14 day) was 712.8 IU/L. It also gave an ALT ([…], time 14 day) of 30.6 IU/L, an AST ([…], time 14 day) of 62.6 IU/L and a BUN ([…], time 14 day) of 18.2 mg/dL. The CRE ([…], time 14 day) was 0.5 mg/dL, the Ca ([…], time 14 day) was 10.2 mg/dL and the Cl ([…], time 14 day) was 108.1 meq/L. It also gave a DBIL ([…], time 14 day) of 0.008 mg/dL, a GLC ([…], time 14 day) of 187.6 mg/dL and an IP ([…], time 14 day) of 6.5 mg/dL. For the same compound, the K ([…], time 14 day) was 4.9 meq/L, the LDH ([…], time 14 day) was 85.6 IU/L and the Na ([…], time 14 day) was 140.1 meq/L. It also gave a PL ([…], time 14 day) of 158.6 mg/dL, an RALB ([…], time 14 day) of 3.9 g/dL and a TBIL ([…], time 14 day) of 0.3 mg/dL. For the same compound, the TC ([…], time 14 day) was 78.6 mg/dL, the TG ([…], time 14 day) was 139.8 mg/dL and the TP ([…], time 14 day) was 6.1 g/dL. The gamma-GTP ([…], time 14 day) was 1.2 IU/L, the A/G ([…], time 28 day) was 1.6 and the ALP ([…], time 28 day) was 607.6 IU/L. It also gave an ALT ([…], time 28 day) of 28.2 IU/L, an AST ([…], time 28 day) of 58 IU/L and a BUN ([…], time 28 day) of 19.6 mg/dL. It also gave a CRE ([…], time 28 day) of 0.6 mg/dL, a Ca ([…], time 28 day) of 9.7 mg/dL and a Cl ([…], time 28 day) of 106.7 meq/L. The DBIL ([…], time 28 day) was 0.006 mg/dL, the GLC ([…], time 28 day) was 182 mg/dL and the IP ([…], time 28 day) was 6.5 mg/dL. It also gave a K ([…], time 28 day) of 4.5 meq/L, an LDH ([…], time 28 day) of 89.8 IU/L and a Na ([…], time 28 day) of 139.4 meq/L. For the same compound, the PL ([…], time 28 day) was 146.4 mg/dL, the RALB ([…], time 28 day) was 4 g/dL and the TBIL ([…], time 28 day) was 0.3 mg/dL. The TC ([…], time 28 day) was 70.4 mg/dL, the TG ([…], time 28 day) was 146.8 mg/dL and the TP ([…], time 28 day) was 6.4 g/dL. It also gave a gamma-GTP ([…], time 28 day) of 1.4 IU/L.

Reference: ChEMBL document CHEMBL3885861, “Open TG-GATES”
